PubChem BioAssay (NCI)
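Each compound was tested at five concentrations against cells in 96-well plates for 48 hours. TGI marks complete inhibition of growth.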

Legend:
Assay in all cases: inhibition of tumour cell growth, NCI panel, 48 h
A549 NSCLC = system: A549 NSCLC
ACHN renal = system: ACHN renal
HCT-15 colon = system: HCT-15 colon
HT29 colon = system: HT29 colon
MCF7 breast = system: MCF7 breast
NCI-H226 lung = system: NCI-H226 lung
OVCAR-8 ovarian = system: OVCAR-8 ovarian
PC-3 prostate = system: PC-3 prostate
SK-MEL-28 melanoma = system: SK-MEL-28 melanoma
SW-620 colon = system: SW-620 colon
TK-10 renal = system: TK-10 renal

Structure (SMILES)	TGI (A549 NSCLC) [µM]	TGI (ACHN renal) [µM]	TGI (HCT-15 colon) [µM]	TGI (HT29 colon) [µM]	TGI (MCF7 breast) [µM]	TGI (NCI-H226 lung) [µM]	TGI (OVCAR-8 ovarian) [µM]	TGI (PC-3 prostate) [µM]	TGI (SK-MEL-28 melanoma) [µM]	TGI (SW-620 colon) [µM]	TGI (TK-10 renal) [µM]
CCN(CC)C(=S)N/N=C/c1cc([N+](=O)[O-])ccc1O	54	25.1	31.6	> 100	7.05	12.6	45.3	78	> 100	> 100	37.1
O=S(=O)(c1ccccc1)c1cccc2c1NCCC2	> 100	> 100	> 100	> 100	> 100	> 100	> 100	> 100	> 100	> 100	> 100
Cc1cccc(Cn2c3c(c4cc(O)ccc42)C(=O)c2ccccc2C3=O)c1	> 100	> 100	> 100	> 100	98.1	> 100	> 93.2	38.4	> 100	> 100	> 100
O=C(NCc1ccccc1)c1n[nH][nH]c1=O	> 100	> 100	> 100	> 100	> 100	> 100	> 100	> 100	> 100	> 100	> 100
COC(=O)c1c(C)nc2c1cc(O)c1[nH]c(C)c(C)nc12	> 100	> 100	> 100	> 100	> 100	> 100	> 100	> 100	> 100	> 100	> 100
O=[N+]([O-])c1cc(C=NC23CC4CC(CC(C4)C2)C3)ccc1Cl	> 100	56.9	48.3	39.8	27.9	> 81.3	> 90.9	47.5	38	27.7	> 87.2
Cc1ccnc(NS(=O)(=O)c2ccc(N=[N+]=[N-])cc2)n1	> 100	> 100	> 100	> 100	> 100	> 100	> 100	> 100	> 100	> 100	> 100
Nc1nc(-c2ccccc2)nc2oc(-c3cccs3)nc12	> 100	> 100	> 100	> 100	> 100	> 100	> 100	> 100	> 100	> 100	> 100
O=C1CCCCC1CN1CCCCC1 (stereo not given)	> 100	> 100	> 100	> 100	> 100	> 100	> 100	> 100	> 100	> 100	> 100
COc1ccc(C(=C2C=CC=C2)c2ccc(OC)cc2)cc1	> 100	> 100	74	66	37.6	> 100	> 100	> 100	> 100	> 100	> 100
COC(=O)C1=C(C(=O)OC)SC(=C2SCSC3=C2SC(C(=O)OC)=C(C(=O)OC)C32SC3=C(CCCC3)S2)S1	> 100	> 100	> 100	> 100	> 100	> 100	> 100	> 100	> 100	> 100	> 100
NC1(c2cc3ccccc3s2)CCCC1	> 100	> 100	> 100	> 100	> 100	> 100	> 100	81.4	48.1	> 100	85.7
Cc1ccc(N(Cc2ccccc2)Cc2ccccc2)cc1	> 100	> 100	> 100	> 100	> 100	> 100	> 100	> 100	> 100	> 100	> 100
NC(N)=Nc1ccc(CC(N)NCC(=O)O)cc1 (stereo not given)	> 25	> 25	> 25	> 25	> 25	> 25	> 25	> 25	> 25	> 25	> 25
CC1(C(=O)O)CCC2(C)CCC3(C)C(=CC(=O)C4C5(C)CCC(O)C(C)(C)C5CCC43C)C2C1 (stereo not given)	> 100	42.2	85.4	38.7	> 100	> 100	> 100	> 100	52.4	> 100	> 100
N#CC(NCc1cccc(CNC(C#N)c2ccccc2)c1)c1ccccc1 (stereo not given)	> 100	> 100	66.1	30.8	56.6	> 100	> 100	> 100	33.8	61.4	> 100
COc1cc(S(=O)(=O)Nc2nc(-c3ccc(N4C(=O)C(CC(=O)O)SC4c4cccs4)cc3)cs2)ccc1Cl (stereo not given)	> 100	> 100	39.8	> 100	65.8	> 100	> 100	> 100	> 100	78.8	> 100
CC(=O)N(C(=O)CC(=O)N1N=C(c2ccccc2)C(N=Nc2ccccc2[N+](=O)[O-])C1=O)c1ccc(Cl)cc1 (stereo not given)	> 10	> 10	> 10	> 10	> 10	> 10	> 10	> 10	> 10	> 10	> 10
c1ccc2c(c1)Cn1c-2nc2ccccc21	> 100	> 100	> 100	> 100	> 100	> 100	> 100	> 100	> 100	> 100	> 100
CCC(=O)NCC1CCCN2CCCCC12 (stereo not given)	> 100	> 100	> 100	> 100	> 100	> 100	> 100	> 100	> 100	> 100	> 100
